Results on 14 molecules are retold here after patent publication US12365658B2, “Benzothia(di)azepine compounds and their use as bile acid modulators” (Albireo AB, priority 2021, dated 2025).

One may read the Papp A→B as the apparent permeability from the apical to the basolateral side of a cell layer. In general, Papp B→A refers to how fast a substance crosses the layer from the basolateral side. Usually IC50 stands for the concentration that inhibits the measured activity by half.

A short description of series [1]: Bidirectional permeability assay (Caco-2 cells). As to conditions: human, 10 μM in FaSSIF buffer; for Papp A→B at 120 min, 10 μM: Caco-2, pH 7.4, absorptive direction (A2B); for Papp B→A at 120 min, 10 μM: Caco-2, pH 7.4, secretory direction (B2A). It is filed as in vitro ADME. The protocol:
Bidirectional Permeability Assay (Caco-2 Cells)
Caco-2 cells (Evotec) were seeded at a density of 70,000 cells/well in Millicell® 24-well cell culture insert plates and maintained in an incubator (37° C., 5% CO2, 95% RH) for 21 days with media change on alternate days.
Stock solutions (10 mM) of the test compounds, atenolol (low permeability marker), propranolol (high permeability marker) and digoxin (substrate for P-gp transport pathway) were prepared in dimethylsulfoxide (DMSO). An intermediate stock solution (1 mM) was prepared by diluting 10 μL of 10 mM master stock solution with 90 μL of neat DMSO. A working stock solution (10 μM) was prepared by diluting 50 μL of 1 mM with 4950 μL of FaSSIF buffer. Post addition of compounds to the FaSSIF, samples were subjected to sonication for 2 hours, and centrifuged at 4000 RPM for 30 minutes at 37° C. The 4 mL of resultant supernatant was directly used in the assay. The final DMSO concentration in the transport experiments was 1%.
On the day of assay, Caco-2 monolayers were washed twice with transport buffer (HBSS, pH 7.4) and pre-incubated for 30 min (37° C., 5% CO2, 95% RH) in an incubator. The electrical resistance of the monolayers was measured with a Millicell®-ERS system. Monolayers with trans-epithelial electrical resistance (TEER) values greater than 350 ohm·cm^2 were selected for the assay.
The assay was conducted in absorptive direction (A2B) and secretory (B2A) directions. Transport experiments were initiated by addition of transport assay buffer (FaSSIF buffer prepared in HBSS) consisting of compounds to the donor compartment (apical chamber A-B; basolateral chamber B-A) in duplicate (n=2) wells. Drug free HBSS buffer (pH 7.4) containing 1% bovine serum albumin (BSA) was introduced to the receiver (A-B-basolateral; B-A-Apical) compartments. The volumes of apical and basolateral compartments were 0.4 and 0.8 mL, respectively. After adding dosing solution, plates were incubated in an incubator for 120 minutes at 37° C. After 120 minutes, donor and receiver samples were collected and matrix matched (1:1, 30 μL study sample+30 μL blank buffer) with the opposite buffer. Dosing samples matrix matched (1:1, 30 μL study sample+30 μL blank buffer) with the opposite buffer. Samples were processed by adding acetonitrile containing internal standard (60 μL study sample+200 μL acetonitrile containing internal standard-Tolbutamide, 500 ng/mL). Samples were vortexed and centrifuged at 4000 rpm for 10 minutes. The obtained supernatant (100 μL) was diluted with 100 μL of water and transferred to fresh 96 well plates. The concentration of compounds in the samples was analyzed by liquid chromatography tandem mass spectrometry (LC-MS/MS) method using discovery grade bio-analytical method, as applicable.
The mean apparent permeability (Papp, ×10^−6 cm/sec) of the test compounds, atenolol, propranolol and digoxin were calculated as follows:
where dq/dt=rate of transport (rate of transport of compound in the receiver compartment), C0=initial concentration in the donor compartment, A=surface area of the effective filter membrane.
A general note: Caco-2 cells form a polarised layer with tight junctions and transporters.

The target of series [2] is T1, Human IBAT (Homo sapiens, UniProt Q12908).
T1 construct: expressed in transfected cells; kept under Puromycin selection
T1 sequence (Q12908 1-348): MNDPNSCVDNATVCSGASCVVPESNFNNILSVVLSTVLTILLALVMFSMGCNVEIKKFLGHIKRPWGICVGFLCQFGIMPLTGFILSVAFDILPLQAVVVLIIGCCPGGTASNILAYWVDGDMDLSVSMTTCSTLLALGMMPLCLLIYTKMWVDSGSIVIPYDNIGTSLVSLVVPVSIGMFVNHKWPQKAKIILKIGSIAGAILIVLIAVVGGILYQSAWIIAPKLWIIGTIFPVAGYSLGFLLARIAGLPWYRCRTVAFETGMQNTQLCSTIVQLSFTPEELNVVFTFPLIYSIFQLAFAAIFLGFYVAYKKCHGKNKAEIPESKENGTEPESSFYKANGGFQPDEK
The experiment in a line: IBAT (h/m) assay, human IBAT-overexpressing cells, 3H-taurocholic acid uptake. As to conditions: 0.25 μM 3H-taurocholic acid and 5 μM cold taurocholic acid, 20 minutes, highest test concentration 10 μM, read-out: hIBAT IC50. It is filed as cell-based. The protocol:
IBAT (h/m) Assay Protocol
10,000 cells (Human or Mouse IBAT-overexpressing cells) were seeded in 96-wells plate (Corning CLS3809) in 200 μL MEM-alpha medium (Gibco 12571-063) supplemented with 10% FBS (Gibco 10438026) containing Puromycin (Gibco A1113803) (10 μg/mL) and incubated at 37° C. in 5% CO2 for 48 hours. After incubation, media was decanted from the wells and cells were washed two times with 300 μL of basal MEM-alpha medium (FBS-free). After decanting basal MEM-alpha medium each time, plates were tapped against paper towel to ensure maximum removal of residual media. Test inhibitor dilutions (highest test concentration being 10 μM, 3-fold serial dilution, 10 points) prepared in DMSO (Sigma D2650) were added in incubation mix (maintaining 0.2% final DMSO concentration) containing 0.25 μM 3H-taurocholic acid (ARC ART-1368) and 5 μM of cold taurocholic acid (Sigma T4009). 50 μL of incubation mix containing test inhibitors was then added to the wells (in duplicate) and the plates were incubated for 20 minutes in a CO2 incubator at 37° C. After incubation, the reaction was stopped by keeping the plates on ice water mix for 2-3 minutes and then the incubation mix was aspirated completely from the wells. The wells were washed two times with 250 μL of chilled unlabelled 1 mM taurocholic acid dissolved in HEPES (Gibco 15630080)-buffered (10 mM) HBSS (Gibco 14175079) (pH 7.4). The plates were tapped against a paper towel after every wash to ensure maximum removal of blocking buffer.
100 μL of MicroScint-20 (PerkinElmer 6013621) was added to the wells and kept overnight at room temperature before reading the plates in TopCount NXT™ Microplate Scintillation and Luminescence Counter from PerkinElmer under 3H Test protocol (set at 120 seconds reading time per well).
Preparation of Test Compound Dilutions
All test compounds were provided in powder form at room temperature. 10 mM DMSO stocks of the test compounds were prepared, aliquoted and stored at −20° C. From the 10 mM DMSO stock of the compounds, a 3-fold serial dilution in DMSO was prepared to get a total of 10 dilutions of the test compounds. 0.5 μL of this dilution in DMSO was added to 250 μL of FBS-free basal media containing 3H-taurocholic acid and cold taurocholic acid to prepare the incubation mixture.

Turning to `CCCCC1CN(c2ccccc2)c2cc(SC)c(OCC(C)(C)C(=O)O)cc2S(=O)(=O)N1C` (single isomer, unassigned) [2, enantiomer 2], in series [1], the apical-to-basolateral permeability (Papp A→B) at 120 min, 10 μM was found to be 13.2 ×10⁻⁶ cm/s and the Papp B→A at 120 min, 10 μM came to 15.2 ×10⁻⁶ cm/s. The IC50 in series [2] was 682 nM.

In series [1], `CCCCC1CN(c2ccccc2)c2cc(SC)c(OCC3(C(=O)O)CC3)cc2S(=O)(=O)N1C` (single isomer, unassigned) [4, enantiomer 2] had an apparent permeability from apical to basolateral (Papp A→B) at 120 min, 10 μM of 18.8 ×10⁻⁶ cm/s and a Papp B→A at 120 min, 10 μM of 13 ×10⁻⁶ cm/s. In series [2], the IC50 was found to be 294 nM.

In series [1], `CCCCC1CN(c2ccccc2)c2cc(SCC)c(OCC(C)(C)C(=O)O)cc2S(=O)(=O)N1C` (single isomer, unassigned) [6, enantiomer 2] gave an apical-to-basolateral permeability (Papp A→B) at 120 min, 10 μM of 8.6 ×10⁻⁶ cm/s and a basolateral-to-apical permeability (Papp B→A) at 120 min, 10 μM of 6.5 ×10⁻⁶ cm/s. In series [2], the 50% inhibitory concentration (IC50) turned out to be 290 nM.

With `CCCCC1CN(c2ccccc2)c2cc(SCC)c(OCC3(C(=O)O)CC3)cc2S(=O)(=O)N1C` (single isomer, unassigned) [8, enantiomer 1], in series [1], the Papp A→B at 120 min, 10 μM worked out at 15.8 ×10⁻⁶ cm/s and the basolateral-to-apical permeability (Papp B→A) at 120 min, 10 μM was determined as 5 ×10⁻⁶ cm/s. Also, the concentration for half-maximal inhibition (IC50) in series [2] was determined as 166 nM.

As to `CCCCC1CN(c2ccccc2)c2cc(SC)c(OCC(C)(OC)C(=O)O)cc2S(=O)(=O)N1C` (single isomer, unassigned) [24, diastereomer 1], in series [2], the IC50 is 1030 nM.

With `CCCCC1CN(c2ccccc2)c2cc(SC)c(OCC(C)(OC)C(=O)O)cc2S(=O)(=O)N1C` (single isomer, unassigned) [24, diastereomer 2], the IC50 in series [2] turned out to be 412 nM.

On to `CCCCC1CN(c2ccccc2)c2cc(SC)c(OCC(OC)C(=O)O)cc2S(=O)(=O)N1C` (single isomer, unassigned) [32, diastereomer 1], for which, in series [1], the apical-to-basolateral permeability (Papp A→B) at 120 min, 10 μM was 5.2 ×10⁻⁶ cm/s and the Papp B→A at 120 min, 10 μM was determined as 15.9 ×10⁻⁶ cm/s. Further, the IC50 in series [2] turned out to be 2400 nM.

Take `CCCCC1CN(c2ccccc2)c2cc(SC)c(OCC(C)(OC)C(=O)O)cc2S(=O)(=O)N1C` (single isomer, unassigned) [Example 23, 3-((3-Butyl-2-methyl-7-(methylthio)-1,1-dioxido-5-phenyl-2,3,4,5-tetrahydro-1,2,5-benzothiadiazepin-8-yl)oxy)-2-methoxy-2-methylpropanoic acid]: in series [1], the Papp A→B at 120 min, 10 μM was determined as 10.6 ×10⁻⁶ cm/s and the Papp B→A at 120 min, 10 μM was found to be 30.2 ×10⁻⁶ cm/s. Further, the IC50 in series [2] is 257 nM.

In series [1], `CCCCC1CN(c2ccccc2)c2cc(SC)c(OCC3(C(=O)O)CC3)cc2S(=O)(=O)N1C` (centres unmarked) [Example 3, 1-(((3-Butyl-2-methyl-7-(methylthio)-1,1-dioxido-5-phenyl-2,3,4,5-tetrahydro-1,2,5-benzothiadiazepin-8-yl)oxy)methyl)cyclopropane-1-carboxylic acid] returned a Papp A→B at 120 min, 10 μM of 20.8 ×10⁻⁶ cm/s and a Papp B→A at 120 min, 10 μM of 12.9 ×10⁻⁶ cm/s. For the same molecule, the half-maximal inhibitory concentration (IC50) in series [2] is 274 nM.

On to `CCCCC1CN(c2ccccc2)c2cc(SCC)c(OCC(C)(C)C(=O)O)cc2S(=O)(=O)N1C` (centres unmarked) [Example 5, 3-((3-Butyl-7-(ethylthio)-2-methyl-1,1-dioxido-5-phenyl-2,3,4,5-tetrahydro-1,2,5-benzothiadiazepin-8-yl)oxy)-2,2-dimethylpropanoic acid], for which, in series [1], the apparent permeability from apical to basolateral (Papp A→B) at 120 min, 10 μM amounted to 9.4 ×10⁻⁶ cm/s and the apparent permeability from basolateral to apical (Papp B→A) at 120 min, 10 μM stood at 7.2 ×10⁻⁶ cm/s. Further, in series [2], the 50% inhibitory concentration (IC50) is 615 nM.

In the case of `CCCCC1CN(c2ccccc2)c2cc(SCC)c(OCC3(C(=O)O)CC3)cc2S(=O)(=O)N1C` (centres unmarked) [Example 7, 1-(((3-Butyl-7-(ethylthio)-2-methyl-1,1-dioxido-5-phenyl-2,3,4,5-tetrahydro-1,2,5-benzothiadiazepin-8-yl)oxy)methyl)cyclopropane-1-carboxylic acid], in series [1], the Papp A→B at 120 min, 10 μM turned out to be 8.1 ×10⁻⁶ cm/s and the basolateral-to-apical permeability (Papp B→A) at 120 min, 10 μM came out at 3.8 ×10⁻⁶ cm/s. In addition, the IC50 in series [2] turned out to be 405 nM.

As for `CCCCC1CN(c2ccc(F)cc2)c2cc(SC)c(OCC(C)(C)C(=O)O)cc2S(=O)(=O)N1C` (centres unmarked) [Example 13, 3-((3-butyl-5-(4-fluorophenyl)-2-methyl-7-(methylthio)-1,1-dioxido-2,3,4,5-tetrahydro-1,2,5-benzothiadiazepin-8-yl)oxy)-2,2-dimethylpropanoic acid], in series [1], the apparent permeability from apical to basolateral (Papp A→B) at 120 min, 10 μM was 10.8 ×10⁻⁶ cm/s and the apparent permeability from basolateral to apical (Papp B→A) at 120 min, 10 μM is 8.6 ×10⁻⁶ cm/s. Also, the IC50 in series [2] amounted to 360 nM.

Consider `CCCCC1CN(c2ccccc2)c2cc(SC)c(OCC(C)(OC)C(=O)O)cc2S(=O)(=O)N1C` (centres unmarked) [Example 22, 3-((3-Butyl-2-methyl-7-(methylthio)-1,1-dioxido-5-phenyl-2,3,4,5-tetrahydro-1,2,5-benzothiadiazepin-8-yl)oxy)-2-methoxy-2-methylpropanoic acid], for which, in series [1], the Papp A→B at 120 min, 10 μM worked out at 11.7 ×10⁻⁶ cm/s and the basolateral-to-apical permeability (Papp B→A) at 120 min, 10 μM turned out to be 21.5 ×10⁻⁶ cm/s. Besides, the concentration for half-maximal inhibition (IC50) in series [2] was 428 nM.

Take `CCCCC1CN(c2ccc(F)cc2)c2cc(SCC)c(OCC(O)C(=O)O)cc2S(=O)(=O)N1C` (centres unmarked) [Example 33, 3-((3-butyl-7-(ethylthio)-5-(4-fluorophenyl)-2-methyl-1,1-dioxido-2,3,4,5-tetrahydro-1,2,5-benzothiadiazepin-8-yl)oxy)-2-hydroxypropanoic acid]: in series [1], the Papp A→B at 120 min, 10 μM stood at 2.2 ×10⁻⁶ cm/s and the Papp B→A at 120 min, 10 μM came out at 4.3 ×10⁻⁶ cm/s. Further, the half-maximal inhibitory concentration (IC50) in series [2] was 117 nM.
